Reference: patent US20260042769A1, “TRIARYL AGONISTS OF ALPHA-2 ADRENERGIC RECEPTORS” (ALCEPTOR THERAPEUTICS, INC., priority 2023, published 2026)

Biological target: T1, human ADRA2B receptor (Homo sapiens, UniProt P18089)
T1 construct: expressed in transfected cells
T1 sequence (P18089 1-450): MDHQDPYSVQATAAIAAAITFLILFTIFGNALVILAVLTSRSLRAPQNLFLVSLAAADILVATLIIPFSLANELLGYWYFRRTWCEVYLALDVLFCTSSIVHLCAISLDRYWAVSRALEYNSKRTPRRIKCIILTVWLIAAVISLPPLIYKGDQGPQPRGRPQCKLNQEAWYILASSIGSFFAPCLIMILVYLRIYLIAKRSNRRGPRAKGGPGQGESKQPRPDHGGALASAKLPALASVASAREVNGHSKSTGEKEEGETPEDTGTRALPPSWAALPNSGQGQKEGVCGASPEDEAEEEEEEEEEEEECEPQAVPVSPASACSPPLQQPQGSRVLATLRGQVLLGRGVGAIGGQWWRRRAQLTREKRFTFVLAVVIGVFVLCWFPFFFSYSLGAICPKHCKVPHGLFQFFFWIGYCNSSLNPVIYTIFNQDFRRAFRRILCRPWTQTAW
Experiment: GTPγS agonist assay, ADRA2B receptor
Format: biochemical
Conditions: read-out: GTPase - Human Alpha2B EC50
Protocol: GTP ? S Agonist Assays (ADRA2A, ADRA2B, and ADRA2C Receptors)
Membranes were prepared for GTP ? S binding assays from CHO-K1 cells stably expressing human ADRA2A, ADRA2B, or ADRA2C receptor. Briefly, cells were grown in 5-layer cell culture flasks. Cells were washed with 50 mL of PBS and then dissociated with 0.05% trypsin. Dissociated cells were then collected by centrifugation at 650×g for 8 min at 4° C. Pellets were washed again in PBS by centrifugation and resuspended in 30 mL of 20 mM HEPES, 10 mM EDTA, pH 7.4. After sitting on ice for 30 min, membranes were collected by centrifugation at 50000×g for 15 min at 4° C., resuspended in 30 mL of 20 mM HEPES, 0.1 mM EDTA, pH 7.4 and collected again by centrifugation. Pellets were then washed twice by centrifugation in 30 mL of 20 mM HEPES, pH 7.4, and stored at −80° C. until the day of the assay. On the day of the assay, pellets were thawed on ice and resuspended in 1 mL of 20 mM HEPES, pH 7.4, 10 mM MgCl2, 100 mM NaCl using dounce homogenization. Membrane protein concentration was determined by BCA protein assay (Promega, Madison, WI) according to Promega guidelines.
On the day of the assay, serial dilutions of test compounds were brought up in assay buffer (20 mM HEPES, 10 mM MgCl2, 200 mM NaCl) at 10× final assay concentration. 50 μL/well of membrane homogenates (containing 5 μg of membrane protein for ADRA2A, ADRA2B, or 7.5 μg for ADRA2C) were prepared in assay buffer supplemented with GDP at 2× final assay concentration (5 μM GDP) and dispensed into 96 well polypropylene, U-bottom Greiner plates. Then, 10 μL of compounds were added to assay plates and incubated for 10 min at room temperature. […] The binding reaction was incubated for 1 h at 37° C. Membranes in assay reactions were then transferred to GF/C filter plates (UniFilter, Perkin Elmer) and washed three times using a FilterMate Harvester (Perkin Elmer) with cold assay buffer containing no GDP. Filter plates were then dried at 40° C. overnight followed by the addition of 30 μL/well of Beta Plate Scintillation liquid. Plates were top and bottom sealed before being read on TopCount scintillation counter (Perkin Elmer, Waltham, MA).

Row | Structure (SMILES) | EC50 [nM]
1 | Cc1ccnc(C[C@H](c2cnc[nH]2)c2cccc(C)c2C)n1 [Compound 78, 2-[(2S)-2-(2,3-dimethylphenyl)-2-(1H-imidazol-4-yl)ethyl]-4-methylpyrimidine] | > 500
2 | Cc1ccnc(C[C@@H](c2cnc[nH]2)c2cccc(C)c2C)n1 [Compound 79, 2-[(2R)-2-(2,3-dimethylphenyl)-2-(1H-imidazol-4-yl)ethyl]-4-methylpyrimidine] | 50 to 500
3 | Cc1cccc([C@H](Cc2cccc(C(F)(F)F)n2)c2c[nH]cn2)c1C [Compound 80, 2-[(2S)-2-(2,3-dimethylphenyl)-2-(1H-imidazol-4-yl)ethyl]-6-(trifluoromethyl) pyridine] | < 10
4 | Cc1cccc([C@@H](Cc2cccc(C(F)(F)F)n2)c2c[nH]cn2)c1C [Compound 81, 2-[(2R)-2-(2,3-dimethylphenyl)-2-(1H-imidazol-4-yl)ethyl]-6-(trifluoromethyl) pyridine] | > 500
5 | Cc1cncc(C[C@H](c2cnc[nH]2)c2cccc(C)c2C)n1 [Compound 82, 2-[(2S)-2-(2,3-dimethylphenyl)-2-(1H-imidazol-4-yl)ethyl]-6-methylpyrazine] | 50 to 500
6 | Cc1cncc(C[C@@H](c2cnc[nH]2)c2cccc(C)c2C)n1 [Compound 83, 2-[(2R)-2-(2,3-dimethylphenyl)-2-(1H-imidazol-4-yl)ethyl]-6-methylpyrazine] | < 10
7 | COCCNc1cccc(CC(c2cnc[nH]2)c2cccc(C)c2C)n1 (stereo not shown) [Compound 84, 6-[2-(2,3-dimethylphenyl)-2-(1H-imidazol-4-yl)ethyl]-N-(2-methoxyethyl) pyridin-2-amine] | < 10
8 | Cc1cccc(C(Cc2ccnnc2)c2cnc[nH]2)c1C (stereo not shown) [Compound 85, 4-[2-(2,3-dimethylphenyl)-2-(1H-imidazol-4-yl)ethyl] pyridazine] | 10 to 50
9 | Cc1cccc(C(Cc2ccc(=O)[nH]n2)c2c[nH]cn2)c1C (stereo not shown) [Compound 86, 6-[2-(2,3-dimethylphenyl)-2-(1H-imidazol-4-yl)ethyl]-2,3-dihydropyridazin-3-one] | < 10
10 | Cc1cccc(C(Cc2cccc(=O)[nH]2)c2cnc[nH]2)c1C (stereo not shown) [Compound 87, 6-[2-(2,3-dimethylphenyl)-2-(1H-imidazol-4-yl)ethyl] pyridin-2-ol] | > 500
11 | Cc1cncc(CC(c2cnc[nH]2)c2cccc(C)c2C)n1 (stereo not shown) [Compound 88, 2-[2-(2,3-dimethylphenyl)-2-(1H-imidazol-4-yl)ethyl]-6-methylpyrazine] | 10 to 50
12 | COc1cncc(CC(c2cnc[nH]2)c2cccc(C)c2C)n1 (stereo not shown) [Compound 89, 2-[2-(2,3-dimethylphenyl)-2-(1H-imidazol-4-yl)ethyl]-6-methoxy-pyrazine] | < 10
13 | Cc1cccc(C(Cc2ccc(Cl)cn2)c2cnc[nH]2)c1C (stereo not shown) [Compound 90, 5-chloro-2-[2-(2,3-dimethylphenyl)-2-(1H-imidazol-4-yl)ethyl] pyridine] | < 10
14 | COc1cc(OC)nc(CC(c2c[nH]cn2)c2cccc(C)c2C)n1 (stereo not shown) [Compound 91, 2-[2-(2,3-dimethylphenyl)-2-(1H-imidazol-4-yl)ethyl]-4,6-dimethoxy-pyrimidine] | < 10
15 | Cc1cccc(C(Cc2ccncn2)c2cnc[nH]2)c1C (stereo not shown) [Compound 92, 4-[2-(2,3-dimethylphenyl)-2-(1H-imidazol-4-yl)ethyl] pyrimidine] | 10 to 50
16 | Cc1cccc(C(Cc2ncccn2)c2cnc[nH]2)c1C (stereo not shown) [Compound 93, 2-[2-(2,3-dimethylphenyl)-2-(1H-imidazol-4-yl)ethyl] pyrimidine] | 50 to 500
17 | Cc1cccc(C(Cc2cnccn2)c2cnc[nH]2)c1C (stereo not shown) [Compound 94, 2-[2-(2,3-dimethylphenyl)-2-(1H-imidazol-4-yl)ethyl] pyrazine] | 50 to 500
18 | Cc1cc(C)nc(CC(c2cnc[nH]2)c2cccc(C)c2C)c1 (stereo not shown) [Compound 95, 2-[2-(2,3-dimethylphenyl)-2-(1H-imidazol-4-yl)ethyl]-4,6-dimethyl-pyridine] | < 10
19 | Cc1cccc(CC(c2cnc[nH]2)c2cccc(C)c2C)n1 (stereo not shown) [Compound 96, 2-[2-(2,3-dimethylphenyl)-2-(1H-imidazol-4-yl)ethyl]-6-methyl-pyridine] | 10 to 50

Row | Structure (SMILES) | EC50 [nM]
20 | Cc1cccc(C(Cc2ccncc2)c2cnc[nH]2)c1C (stereo not shown) [Compound 97, 4-[2-(2,3-dimethylphenyl)-2-(1H-imidazol-5-yl)ethyl] pyridine] | < 10
21 | COc1cccc(C[C@@H](c2c[nH]cn2)c2cccc(Cl)c2Cl)n1 [Compound 98, 4-[(R)-1-(2,3-dichlorophenyl)-2-(6-methoxy-2-pyridyl)ethyl] imidazole] | < 10
22 | COc1cccc(C[C@H](c2c[nH]cn2)c2cccc(Cl)c2Cl)n1 [Compound 99, 4-[(S)-1-(2,3-dichlorophenyl)-2-(6-methoxy-2-pyridyl)ethyl] imidazole] | > 500
23 | Cc1cccc([C@@H](Cc2ccon2)c2c[nH]cn2)c1C [Compound 100, 3-[(R)-2-(4-imidazolyl)-2-(2,3-xylyl)ethyl] isoxazole] | 10 to 50
24 | Cc1cccc([C@H](Cc2ccon2)c2c[nH]cn2)c1C [Compound 101, 3-[(S)-2-(4-imidazolyl)-2-(2,3-xylyl)ethyl] isoxazole] | 50 to 500
25 | Cc1nc(C[C@@H](c2cnc[nH]2)c2cccc(C)c2C)cs1 [Compound 102, 4-[(R)-2-(4-imidazolyl)-2-(2,3-xylyl)ethyl]-2-methyl-1,3-thiazole] | 10 to 50
26 | Cc1nc(C[C@H](c2c[nH]cn2)c2cccc(C)c2C)cs1 [Compound 103, 4-[(S)-2-(4-imidazolyl)-2-(2,3-xylyl)ethyl]-2-methyl-1,3-thiazole] | > 500
27 | Cc1cccc(C(Cc2ccnnc2)c2cnc[nH]2)c1C (stereo not shown) [Compound 104, 4-[2-(4-imidazolyl)-2-(2,3-xylyl)ethyl] pyridazine] | > 500
28 | Cc1cccc([C@@H](Cc2ccn(C)n2)c2c[nH]cn2)c1C [Compound 105, 3-[(R)-2-(4-imidazolyl)-2-(2,3-xylyl)ethyl]-1-methylpyrazole] | > 500
29 | Cc1cccc([C@H](Cc2ccn(C)n2)c2c[nH]cn2)c1C [Compound 106, 3-[(S)-2-(4-imidazolyl)-2-(2,3-xylyl)ethyl]-1-methylpyrazole] | 10 to 50
30 | FC(F)Oc1ccccc1C(Cc1ccccn1)c1c[nH]cn1 (stereo not shown) [Compound 107, 4-[1-(o-difluoro-methoxyphenyl) 2-(2-pyridyl)ethyl] imidazole] | > 500
31 | COc1ncc(C[C@@H](c2c[nH]cn2)c2cccc(Cl)c2C)cn1 [Compound 108, 5-[(R)-2-(3-chloro-2-tolyl)-2-(4-imidazolyl)ethyl]-2-methoxy-pyrimidine] | 50 to 500
32 | COc1ncc(C[C@H](c2c[nH]cn2)c2cccc(Cl)c2C)cn1 [Compound 109, 5-[(S)-2-(3-chloro-2-tolyl)-2-(4-imidazolyl)ethyl]-2-methoxy-pyrimidine] | < 10
33 | COc1cccc(C[C@@H](c2c[nH]cn2)c2cccc(OC)c2Cl)n1 [Compound 110, 4-[(R)-1-(2-chloro-3-methoxyphenyl)-2-(6-methoxy-2-pyridyl)ethyl] imidazole] | < 10
34 | COc1cccc(C[C@H](c2c[nH]cn2)c2cccc(OC)c2Cl)n1 [Compound 111, 4-[(S)-1-(2-chloro-3-methoxyphenyl)-2-(6-methoxy-2-pyridyl)ethyl] imidazole] | 50 to 500
35 | Cc1cccc(C(Cc2ncc(F)cn2)c2c[nH]cn2)c1C (stereo not shown) [Compound 112, 5-fluoro-2-[2-(4-imidazolyl)-2-(2,3-xylyl)ethyl] pyrimidine] | 50 to 500
36 | Cc1cccc(C(Cc2c(C)noc2C)c2c[nH]cn2)c1C (stereo not shown) [Compound 113, 4-[2-(4-imidazolyl)-2-(2,3-xylyl)ethyl]-3,5-dimethyl-isoxazole] | 50 to 500
37 | Cc1cc(CC(c2c[nH]cn2)c2cccc(C)c2C)no1 (stereo not shown) [Compound 114, 3-[2-(4-imidazolyl)-2-(2,3-xylyl)ethyl]-5-methyl-isoxazole] | < 10
